Source: patent US9650497B2, “Phosphonamidates-synthesis and flame retardant applications” (EMPA EIDGENOSSISCHE MATERIALPRUFUNGS- UND FORSCHUNGSANSTALT, priority 2011, dated 2017)
Where two headings read alike, the source gives them in different places.

Legend:
[1] = BKZ flammability test (Swiss standard, vertical burning)
Description: The synthesized compounds were evaluated for flame retardant properties by incorporating them in flexible PU foams.
The flexible polyurethane foams were manufactured according to the recipe mentioned in Table 3 below.
The manufacture of the foams according to the formulations in Table 3 was done by handmix in the laboratory based on 200 gms polyol. The formulation of the components taking part in the reaction was identical in all cases except for the addition of Flame retardants where indicated.
The resulting foams were dried and aged for 3 h at 80° C. The foams were then tested for their flammability according to Swiss flammability standard (BKZ). It's a vertical burning test for foamed materials with a specific sample size (length: 160 mm, width: 60 mm, thickness: 6 mm±10% tolerance). For each specimen flame test (BKZ) was performed in triplicate. If the results were not consistent, each specimen was tested 6 times. For the BKZ test an air dried specimen was placed in a vertical position and subjected to flame from the lower front edge by a standardized flame. The flame height of 20 mm was maintained and should burn constantly with sharp outlines. The burner position was adjusted 45° so that the flame hits the specimen vertically in the middle of the lower front edge. The flame is brought in contact with the foam for 15 sec and should be placed such that the foam bottom is approximately 4±1 mm inside the flame from the tip.

[2] = TGA thermal decomposition of DOPO and amino DOPO derivatives; type: physicochemical; settings: for TdMax: Temperature for maximum decomposition rate: several values = multiple decomposition stages
Description: One of the important objectives of developing various amino derivatives of DOPO was to improve the thermal stability of DOPO itself. This will ensure their suitability to be used in thermoplastic polymers which require usually high processing temperatures (200-350° C.).

[3] = UL-94 HB test (ASTM D4986 or ISO/DIS 9772.3, horizontal); settings: for flame retardancy effect compared to unmodified DOPO: Table 6; for UL 94 HB test rating (Horizontal): OH terminated prepolymer foam
[4] = Small Burner test, DIN 4102-1 class B2, edge application of flame; settings: spray foam
Description: The Small Burner test equipment employed within this patent is in accordance to the requirements for the tests of the building materials class B2 specified in DIN 4102-1.
All flame tests done within this report are based on edge application of the impinging flame.
The B2-burner tests were carried out approx. one week after foaming.

[5] = Water solubility of DOPO compounds; type: physicochemical; settings: for water solubility in words: up to 90° C.; for solubility: water
From the text: These DOPO-derivatives are very barely soluble in water as it is exemplarily shown for EDAB-DOPO and TEPA-PDOPO in table 2.

[6] = 5% FR in flexible PU foam (Table 3 recipe, handmix)
[7] = 25° C., read-out: solubilitiy FR in water mg/L
[8] = 25° C., read-out: solubilitiy FR in water mmol/L
[9] = 90° C., read-out: solubilitiy FR in water mg/L
[10] = 90° C., read-out: solubilitiy FR in water mmol/L

Row | Structure (SMILES) | BKZ Classification [1, 6] | Td1: Temperature for 10% weight loss [2] | % Char at 800° C. [2] | TdMax: Temperature for maximum decomposition rate [2] | Burning Rate ([3]; 5% FR in flexible PU foam) | UL-94 HB Rating ([3]; 5% FR in flexible PU foam) | other results
1 | O=P1(N2CCN(P3(=O)Oc4ccccc4-c4ccccc43)CC2)Oc2ccccc2-c2ccccc21 (centres unmarked) [PB-DOPO] | Class 5 (flame does not reach the top level of the sample holder (150 mm). duration ≦ 20 s) | 387 °C | 5% | 433 °C | 57 mm/min | HBF | –
2 | O=P1(NCCNP2(=O)Oc3ccccc3-c3ccccc32)Oc2ccccc2-c2ccccc21 (centres unmarked) [EDAB-DOPO] | Class 5 (flame does not reach the top level of the sample holder (150 mm). duration ≦ 20 s) | 355 °C | 7% | 415 °C | 25 mm/min | HF-1 | flammability performance versus TCPP ([1]; polyether foam, lower density, 2.8 pphp water, columns 3 and 5): works better at least in vertical tests; effect on flammability versus foam without FR ([1]; polyether foam, water 1.6 pphp, columns 4 and 1): positive effect on flammability; flammability performance versus TCPP ([1]; polyether foam, water 1.6 pphp, columns 4 and 2): works at least as well than TCPP; effect of doubling the amount of FR on flame height and extinguishing of the flame [4]: no significant effect; water solubility in words [5]: only very small amounts; solubility [5, 7]: 393 mg/L; solubility [5, 8]: 0.8 mmol/L; solubility [5, 9]: 501 mg/L; solubility [5, 10]: 1.03 mmol/L; flame retardancy effect compared to unmodified DOPO ([3]; 5% FR in flexible PU foam): better flame retardancy effect as compared to unmodified DOPO
3 | CC(CCl)OP(=O)(OC(C)CCl)OC(C)CCl (centres unmarked) [TCPP, Tris(2-chlorisopropyl)phosphate, reference compound] | – | – | – | – | – | – | BKZ Classification [1]: Class 5 (key: Class 3: time 5-20 s; Class 4: time, duration of burning > 20 s; Class 5: flame does not reach the top level of the sample holder (150 mm). duration ≦ 20 s); Burning Rate [3]: 23 mm/min; UL-94 HB Rating [3]: HBF
4 | O=P1(NCCN(CCN(CCN(CCNP2(=O)Oc3ccccc3-c3ccccc32)P2(=O)Oc3ccccc3-c3ccccc32)P2(=O)Oc3ccccc3-c3ccccc32)P2(=O)Oc3ccccc3-c3ccccc32)Oc2ccccc2-c2ccccc21 (centres unmarked) [TEPA-PDOPO, tetraethylenepentaamine DOPO] | Class 5 (flame does not reach the top level of the sample holder (150 mm). duration ≦ 20 s) | – | – | – | – | HF-1 | BKZ Class (Vertical) ([1]; 10 pphp FR, OH terminated prepolymer foam): 5; effect of more FR on flammability behavior ([1]; OH terminated prepolymer foam, 5 vs 10 pphp, horizontal and vertical tests): improves flammability behavior in both horizontal and vertical tests; effect of doubling the amount of FR on flame height and extinguishing of the flame [4]: no significant effect; water solubility in words [5]: only very small amounts; solubility [5, 7]: 15.4 mg/L; solubility [5, 8]: 0.01 mmol/L; solubility [5, 9]: 818 mg/L; solubility [5, 10]: 0.65 mmol/L; UL 94 HB test rating (Horizontal) ([3]; 5 pphp FR): HF2; UL 94 HB test rating (Horizontal) ([3]; 10 pphp FR): HF1
5 | O=P1(NCCOP2(=O)Oc3ccccc3-c3ccccc32)Oc2ccccc2-c2ccccc21 (centres unmarked) [EAB-DOPO] | – | 311 °C | 2% | 387 °C | – | – | –
6 | O=P1(NCCN(CCNP2(=O)Oc3ccccc3-c3ccccc32)P2(=O)Oc3ccccc3-c3ccccc32)Oc2ccccc2-c2ccccc21 (centres unmarked) [TDETA-DOPO] | Class 5 (flame does not reach the top level of the sample holder (150 mm). duration ≦ 20 s) | 294 °C | 2% | 385 °C | – | HF-1 | –
7 | O=[PH]1Oc2ccccc2-c2ccccc21 (centres unmarked) [DOPO, 9,10-dihydro-9-oxa-phosphaphenanthrene-10-oxide, reference compound] | Class 5 (flame does not reach the top level of the sample holder (150 mm). duration ≦ 20 s) | 201 °C | 2% | 267 °C | 48 mm/min | HBF | temperature at which decomposition starts [2]: < 200 °C
8 | CCO[Si](CCCNP1(=O)Oc2ccccc2-c2ccccc21)(OCC)OCC (centres unmarked) [TESPA-DOPO] | – | 234 °C | 28% | 135/287/437 | – | – | –
9 | C=CCNP1(=O)Oc2ccccc2-c2ccccc21 (centres unmarked) [AA-DOPO] | Class 5 (flame does not reach the top level of the sample holder (150 mm). duration ≦ 20 s) | 247 °C | 3% | 295 °C | 47 mm/min | HF-2 | flame retardancy effect compared to unmodified DOPO ([3]; 5% FR in flexible PU foam): better flame retardancy effect as compared to unmodified DOPO
